Legend:
YcgR from D. dadantii = target: T1, YcgR from D. dadantii (Dickeya dadantii, UniProt E0SAQ7); assay: ELISA with biotinylated c-di-GMP, competed by unlabelled c-di-GMP; format: binding; conditions: labelled compound (25 nM biotinylated c-di-GMP, Biolog); competition with 10 uL of 250 nM unlabelled c-di-GMP; PBS pH 7.4, room temperature; plate coated with lysate protein; positive control protein
T1 construct: 6xHis-tagged, recombinant, soluble lysate coated on plate

VfmE = target: T2, VfmE (Dickeya dadantii, UniProt E0SMH0); assay: as above; format: binding; conditions: labelled compound (25 nM biotinylated c-di-GMP, Biolog); competition with 10 uL of 250 nM unlabelled c-di-GMP; PBS pH 7.4, room temperature; plate coated with lysate protein
T2 construct: full length, N-terminal 6xHis-MBP fusion (pMAL-c6T) kept, expressed in E. coli NEBExpress, soluble lysate coated on plate
T2 sequence (E0SMH0 entry or part of it): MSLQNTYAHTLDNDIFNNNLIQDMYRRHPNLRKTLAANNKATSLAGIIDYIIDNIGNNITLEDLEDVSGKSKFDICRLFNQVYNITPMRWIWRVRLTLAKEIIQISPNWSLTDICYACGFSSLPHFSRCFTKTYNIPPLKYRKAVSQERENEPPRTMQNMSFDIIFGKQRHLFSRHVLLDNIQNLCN

T1 sequence (E0SAQ7 entry or part of it): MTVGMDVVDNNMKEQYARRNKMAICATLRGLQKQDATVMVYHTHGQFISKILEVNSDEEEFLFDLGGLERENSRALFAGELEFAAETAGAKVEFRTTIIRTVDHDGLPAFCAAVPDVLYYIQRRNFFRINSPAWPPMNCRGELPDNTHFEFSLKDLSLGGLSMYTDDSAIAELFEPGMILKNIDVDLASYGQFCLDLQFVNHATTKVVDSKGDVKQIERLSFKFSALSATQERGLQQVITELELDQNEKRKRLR

## Nc1nc2c(ncn2[C@@H]2O[C@@H]3COP(=O)(O)O[C@H]4[C@@H](O)[C@H](n5cnc6c(=O)[nH]c(N)nc65)O[C@@H]4COP(=O)(O)O[C@H]3[C@H]2O)c(=O)[nH]1 [c-di-GMP]
YcgR from D. dadantii
  ELISA with biotinylated c-di-GMP, competed by unlabelled c-di-GMP: We observed a reduced absorbance in both VfmE- and YcgR-treated wells
VfmE
  ELISA with biotinylated c-di-GMP, competed by unlabelled c-di-GMP: VfmE binds c-di-GMP with specificity comparable to that of a known c-di-GMP effector, YcgR

— paper PMC9045272, “Quorum-Sensing Master Regulator VfmE Is a c-di-GMP Effector That Controls Pectate Lyase Production in the Phytopathogen Dickeya dadantii” (Microbiology Spectrum, 2022)
